Reference: patent publication US5246935A, “Piperazinyl derivatives and methods of treating central nervous system ailments relating to the 5-HT2 receptor system” (Novo Nordisk A/S, priority 1990, dated 1993)
Structures can show the parent of a compound that is named as a salt.

How the values were obtained:
[1] = tested on: acetic acid-induced writhings in mice; assay: Antagonism of Acetic Acid-Induced Writhings In Mice; type: in vivo, mouse (NMRI); settings: Mus musculus, sc; s.c. 30 min before acetic acid 0.5 per cent i.p.; 50 per cent protection
Protocol: Antagonism of Acetic Acid-Induced Writhings In Mice
In mice i.p. injection of acetic acid induces a writhing syndrome which is antagonized by analgesics (Siegmund et al., 1957; Eckhardt et al., 1957).
Acetic acid 0.5 per cent is injected i.p. (0.15 ml/10 g body weight) to 6 mice (NMRI, either sex weighing 20-25 g) pretreated with physiological saline (controls) and to 6 mice pretreated with test substance. In the controls acetic acid induces a syndrome characterized by contraction of abdomen, turning of trunk and extension of hind limbs. Saline and test substances are administered s.c. 30 min. before acetic acid. The number of writhings is counted 5-15 min. after injection of acetic acid.
The activity is expressed as per cent protection: [formula]
The effect of active substances is evaluated by a dose response curve, log dose on the abscissa, and per cent protection on the ordinate. The potency is expressed as the dose (ED50 in mg/kg giving 50 per cent protection against writhings.
This test is used as a screening test for analgesics. Additional results from other screening tests are required to exclude active anti-writhing substances without analgesic effect.

5HT2 receptor = biological target: T1, 5HT2 receptor (Rattus norvegicus, UniProt P14842); assay: In Vitro Inhibition of 5HT2-Receptor Binding (3H-Ketanserine); set-up: species or system rat (male Wistar); settings: 3H-Ketanserine 0.4 nM, rat frontal cortex, 37° C., 15 min
T1 construct: incubated with isolated cell-membrane fragments; from tissue; host or cells: frontal cortex of male Wistar rats (membranes)
T1 sequence (P14842 whole entry, the tested form may be a part): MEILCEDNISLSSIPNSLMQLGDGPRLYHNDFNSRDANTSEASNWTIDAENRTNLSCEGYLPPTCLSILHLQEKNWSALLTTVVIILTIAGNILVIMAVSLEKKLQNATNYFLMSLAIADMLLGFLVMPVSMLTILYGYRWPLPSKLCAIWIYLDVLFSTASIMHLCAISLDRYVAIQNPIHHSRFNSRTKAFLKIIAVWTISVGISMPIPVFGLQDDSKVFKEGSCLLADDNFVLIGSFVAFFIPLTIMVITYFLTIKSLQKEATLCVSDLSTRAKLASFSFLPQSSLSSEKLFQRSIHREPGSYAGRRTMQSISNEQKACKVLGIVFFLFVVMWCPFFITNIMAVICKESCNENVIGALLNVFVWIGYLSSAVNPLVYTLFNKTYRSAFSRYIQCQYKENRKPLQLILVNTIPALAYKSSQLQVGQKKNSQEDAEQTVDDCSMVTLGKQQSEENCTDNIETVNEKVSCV
Protocol: In Vitro Inhibition of 5HT2 -Receptor Binding
Radioactive-labelled ligand ^3 H-Ketanserine is incubated with isolated cell-membrane fragments at 37° C. for a given period of time. Following completed incubation, the incubate is filtered through GF/B filters which are rinsed after filtration to remove unspecifically adhered radioactivity. As opposed to low-molecular compounds, membrane fragments are not rinsed through the filters, the radioactivity bound to the filters indicates the amount of ligand bound specifically as well as non-specifically to the membranes.
The preparation is made in ice bath. Polytron kinematica is rinsed with milli-Q-H2 O before and after use. Male Wistar rats, 150-200 g are decapitated. Frontal cortex is removed quickly and weighed (approx. 200 mg). Frontal cortex is added to centrifuging vial containing 10 ml ice-cold D2 buffer. Homogenization applying polytron kinematica (homogenizer) setting 6 for 20 sec. The homogenizer is rinsed with 10 ml D2 buffer in another centrifuging vial. The 10 ml rinsing buffer is added to the tissue vial. Centrifuged at 18,000 rpm for 10 min. at 4° C. Final pellet is transferred to 125×vol. of same buffer. (Ex. 200 mg in 25 ml D2 buffer). Can be stored for approx. 30 min. at 0° C.
25 μl ^3 H-Ketanserine (0.4 nM)
25 μl test substance/H2 O/blind cyproheptadine (2 μM)
Incubation for 15 min. at 37° C.
10 ml ice-cold 0.9% NaCl is added to the tubes. Filtration is performed through GF/B filters (use gloves). This procedure is repeated. Filters are placed in counting vials, and 4 ml opti- flour is added (prepare in fume cupboard, use gloves). Counting at window 0-19 of the beta-counter (Pachard). Note that receptor box and lid are rinsed thoroughly in H2 O after use to avoid contamination. Further the analytical site is cleaned carefully every day.
Dissolved in H2 O, EtOH, MeOH or DMSO and further diluted in H2 O. The 5HT2 binding will stand concentrations of up to approx. 5% of these solvents without affecting the binding. Most stock solutions are stable at 4° C. Attention should, however, be paid to any precipitation, change in colour etc. Test-substance dilutions are always made fresh every day. When weighing out test substance, it is attempted to weigh out approx. 1 mg of substance. Less than 0.8 mg must never be weighed out and only infrequently more than 2 mg (for economy reasons) dependent, however, on conc./assay.

Alpha1 receptor = assay: In-Vitro Inhibition of Alpha1-Receptor Binding (3H-Prazosin); set-up: species or system rat (male Wistar); settings: 3H-Prazosin 0.5 nM, rat cortex, 25° C., 30 min; read-out: Receptor binding IC50 α1
Protocol: In-Vitro Inhibition of Alpha1 -Receptor Binding, Radioactive-labelled ligand ^3 H-Prazosin is incubated with isolated cell-membrane fragments at 25° C. for a given period of time. Following completed incubation, the incubate is filtered through GF/B filters, which are rinsed following filtration to remove unspecifically adhered radioactivity. As opposed to low- molecular compounds, membrane fragments are not rinsed through the filters, the radioactivity bound to the filters indicates the amount of ligand bound specifically as well as nonspecifically to the membranes. The procedure is performed in ice bath. Polytron kinematica is rinsed with milli-Q-H2 O before and after use. Male Wistar rats, 150-200 g are decapitated, cortex is removed quickly and weighed (approx. 500 mg). Cortex is transferred to a centrifuging vial containing 10 ml ice-cold D2 buffer. Homogenization applying polytron kinematica (homogenizer) setting 6 for 20 sec. The homogenizer is rinsed with 10 ml D2 buffer in another centrifuging vial. The 10 ml rinsing buffer is added to the tissue vial. Centrifugation at 18,000 rpm for 12 min. at 4° C. This is repeated once. Final pellet is added to 400×vol. of same buffer. (Ex. 500 mg cortex in 200 ml D2 buffer). Can be stored for 30 min. at 0° C. 2,000 μl tissue 25 μl ^3 H-Prazosin (0.5 nM) 25 μl test substance/H2 O/blind Phentolamine (10 μM) Incubation for 30 min. at 25° C. 10 ml of ice-cold 0.9% NaCl is added to the tubes and filtered through GF/B filters (use gloves). This procedure is repeated. Filters are placed in counting vials and 4 ml opti-flour is added (perform in fume cupboard, use gloves). Counting is performed at window 0-19 of the betacounter (Pachard). […] Further, the analytical site is cleaned carefully every day after use. Dissolved in H2 O, EtOH, MeOH or DMSO and further diluted in H2 O. […] Most stock solutions are stable at 4° C. Attention should, however, be paid to any precipitation, change in colour etc. Test-substance dilutions are always prepared fresh every day. When weighing out test substances, it is attempted to weigh out approx. 1 mg of substance. Less than 0.8 mg must never be weighed out and only infrequently more than 2 mg (for economy reasons) dependent, however, on conc./ass.

In the case of COc1cc(NC(=O)OCCCN2CCN(c3ccccc3Cl)CC2)cc(OC)c1OC.Cl [Example 3, 4-(2-Chlorophenyl)-1-[3-(3,4,5-trimethoxyphenylcarbamoyloxy)propyl]piperazine, hydrochloride], the ED50 [1] is reported as 12 mg/kg, the IC50 (5HT2 receptor) is reported as 7.5 nM and the IC50 (Alpha1 receptor) is reported as 45 nM.

With COc1cc(NC(=O)OCCCN2CCN(c3ccc(F)cc3)CC2)cc(OC)c1OC [Example 8, 4-(4-Fluorophenyl)-1-[3-(3,4,5-trimethoxyphenylcarbamoyloxy)propyl]piperazine, hydrochloride] the IC50 (5HT2 receptor) was 10 nM and the IC50 (Alpha1 receptor) was 61 nM.

With O=C(Nc1ccc2ncsc2c1)OCCCN1CCN(c2ccc(Cl)cc2)CC1 [Example 19, 4-(4-Chlorophenyl)-1-[3-(6-benzothiazolylcarbamoyloxy)propyl]piperazine, hydrochloride] the IC50 (5HT2 receptor) was 22 nM and the IC50 (Alpha1 receptor) was 122 nM.

For COc1ccc2cccc(N3CCN(CCCOC(=O)Nc4ccc5c(c4)OCO5)CC3)c2c1 [Example 34, 1-(7-Methoxy-1-naphthyl)-4-[3-(3,4-methylenedioxyphenylcarbamoyloxy)propyl]piperazine, HCl], the IC50 (5HT2 receptor) was 13 nM and the IC50 (Alpha1 receptor) was 144 nM.
